ChEMBL document CHEMBL1201861, “Genomics of Drug Sensitity in Cancer screening data, Wellcome Trust Sanger Institute”
“And” between values parts separate entries of the source, which are not always exact repeats. Equal values may be shown once.

Experiments:
SNU-423 = assay: cells; format: functional, cell-based, Homo sapiens
Description: SANGER: Inhibition of human SNU-423 cell growth in a cell viability assay.

CHP-134 = assay: SANGER: Inhibition of human CHP-134 cell growth in a cell viability assay.; format: functional, cell-based
H9 = assay: cells; format: functional, cell-based; conditions: Homo sapiens
Description: SANGER: Inhibition of human H9 cell growth in a cell viability assay.

NCI-H630 = assay: cells; format: functional, cell-based, Homo sapiens;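 also: growth inhibition of NCI-H630 cells, read out with a cell viability assay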
Description: SANGER: Inhibition of human NCI-H630 cell growth in a cell viability assay.

BALL-1 = assay: cells; format: functional, cell-based; conditions: Homo sapiens;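 also: growth inhibition of BALL-1 cells, read out with a cell viability assay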
Description: SANGER: Inhibition of human BALL-1 cell growth in a cell viability assay.

HCT-15 = assay: cells; format: functional, cell-based, Homo sapiens;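 also: cell viability readout, IC50 reflecting suppression of HCT-15 cell growth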
Description: SANGER: Inhibition of human HCT-15 cell growth in a cell viability assay.

D-566MG = assay: cells; format: functional, cell-based; conditions: Homo sapiens
HuO9 = assay: cells; format: functional, cell-based, Homo sapiens;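 also: growth inhibition of HuO9 cells, read out with a cell viability assay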
Description: SANGER: Inhibition of human HuO9 cell growth in a cell viability assay.

SW900 = assay: cells; format: functional, cell-based; conditions: Homo sapiens;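 also: IC50 is the concentration that inhibits SW900 cell growth, measured by a cell viability assay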
Description: SANGER: Inhibition of human SW900 cell growth in a cell viability assay.

MOLT-13 = assay: cells; format: functional, cell-based; conditions: Homo sapiens;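 also: IC50 for suppression of MOLT-13 cell growth, read out with a cell viability assay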
Description: SANGER: Inhibition of human MOLT-13 cell growth in a cell viability assay.

NCI-H1048 = assay: cells; format: functional, cell-based; conditions: Homo sapiens;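 also: growth inhibition of human NCI-H1048 cells, read out with a cell viability assay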
Description: SANGER: Inhibition of human NCI-H1048 cell growth in a cell viability assay.

LU-135 = assay: cells; format: functional, cell-based; conditions: Homo sapiens
Description: SANGER: Inhibition of human LU-135 cell growth in a cell viability assay.

DV-90 = assay: cells; format: functional, cell-based; conditions: Homo sapiens;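 also: Read-out is a viability assay, with IC50 reflecting the drop in DV-90 cell growth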
Description: SANGER: Inhibition of human DV-90 cell growth in a cell viability assay.

NCI-H2227 = assay: cells; format: functional, cell-based; conditions: Homo sapiens;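 also: growth inhibition of the human cell line, read out with a cell viability assay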
Description: SANGER: Inhibition of human NCI-H2227 cell growth in a cell viability assay.

MRK-nu-1 = assay: cells; format: functional, cell-based; conditions: Homo sapiens;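 also: cell viability assay measuring growth suppression of human MRK-nu-1 cells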
Description: SANGER: Inhibition of human MRK-nu-1 cell growth in a cell viability assay.

EW-7 = assay: SANGER: Inhibition of human EW-7 cell growth in a cell viability assay.; format: functional, cell-based; conditions: ew-7
HCC1143 = assay: cells; format: functional, cell-based; conditions: Homo sapiens;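 also: growth inhibition of human HCC1143 cells, read out with a cell viability assay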
Description: SANGER: Inhibition of human HCC1143 cell growth in a cell viability assay.

NCI-H838 = assay: cells; format: functional, cell-based; conditions: Homo sapiens;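 also: growth inhibition of human NCI-H838 cells, read out by a cell viability assay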
Description: SANGER: Inhibition of human NCI-H838 cell growth in a cell viability assay.

COR-L279 = assay: SANGER: Inhibition of human COR-L279 cell growth in a cell viability assay.; format: functional, cell-based
NCI-H719 = assay: cells; format: functional, cell-based; conditions: Homo sapiens;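 also: growth inhibition of the cultured cell line, read out with a viability assay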
Description: SANGER: Inhibition of human NCI-H719 cell growth in a cell viability assay.

BC1 cell line = assay: SANGER: Inhibition of human BC-1 cell growth in a cell viability assay.; format: functional, cell-based
COLO 205 = assay: cells; format: functional, cell-based; conditions: Homo sapiens
Description: SANGER: Inhibition of human COLO-205 cell growth in a cell viability assay.

MES-SA = assay: cells; format: functional, cell-based, Homo sapiens; conditions: mes-sa;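 also: growth inhibition of human MES-SA cells, read out with a cell viability assay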
Description: SANGER: Inhibition of human MES-SA cell growth in a cell viability assay.

Daudi = assay: cells; format: functional, cell-based; conditions: Homo sapiens;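 also: growth inhibition of Daudi cells, read out by a viability assay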
Description: SANGER: Inhibition of human Daudi cell growth in a cell viability assay.

IPC-298 = assay: SANGER: Inhibition of human IPC-298 cell growth in a cell viability assay.; format: functional, cell-based
Calu-1 = assay: SANGER: Inhibition of human Calu-1 cell growth in a cell viability assay.; format: functional, cell-based
MC-CAR = assay: cells; format: functional, cell-based; conditions: Homo sapiens;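 also: growth inhibition of the human MC-CAR cell line, read out by a cell viability assay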
Description: SANGER: Inhibition of human MC-CAR cell growth in a cell viability assay.

TALL-1 = assay: cells; format: functional, cell-based; conditions: Homo sapiens;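 also: growth inhibition of cultured human TALL-1 cells, read out by a cell viability assay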
Description: SANGER: Inhibition of human TALL-1 cell growth in a cell viability assay.

LC-1F = assay: cells; format: functional, cell-based; conditions: Homo sapiens;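 also: growth inhibition of human LC-1F cells, read out with a cell viability assay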
Description: SANGER: Inhibition of human LC-1F cell growth in a cell viability assay.

SNU-C1 = assay: cells; format: functional, cell-based; conditions: Homo sapiens;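 also: growth inhibition of SNU-C1 human cells, read out by a cell viability assay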
Description: SANGER: Inhibition of human SNU-C1 cell growth in a cell viability assay.

BL-70 = assay: SANGER: Inhibition of human BL-70 cell growth in a cell viability assay.; format: functional, cell-based
C-4-II = assay: SANGER: Inhibition of human C-4-II cell growth in a cell viability assay.; format: functional, cell-based
L-540 = assay: cells; format: functional, cell-based; conditions: Homo sapiens;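 also: growth inhibition of the human L-540 cell line, read out with a viability assay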
Description: SANGER: Inhibition of human L-540 cell growth in a cell viability assay.

JIYOYE = assay: cells; format: functional, cell-based; conditions: Homo sapiens
Description: SANGER: Inhibition of human JiyoyeP-2003 cell growth in a cell viability assay.

NCI-H2196 = assay: cells; format: functional, cell-based; conditions: Homo sapiens;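 also: cell viability assay used as the readout of growth inhibition in NCI-H2196 cells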
Description: SANGER: Inhibition of human NCI-H2196 cell growth in a cell viability assay.

CPC-N = assay: cells; format: functional, cell-based; conditions: Homo sapiens;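 also: growth inhibition of CPC-N cells, with a cell viability assay as the readout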
Description: SANGER: Inhibition of human CPC-N cell growth in a cell viability assay.

ECC12 = assay: cells; format: functional, cell-based; conditions: Homo sapiens
Description: SANGER: Inhibition of human ECC12 cell growth in a cell viability assay.

EFE-184 = assay: cells; format: functional, cell-based; conditions: Homo sapiens
Description: SANGER: Inhibition of human EFE-184 cell growth in a cell viability assay.

NCI-H524 = assay: cells; format: functional, cell-based; conditions: Homo sapiens;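 also: growth inhibition of human NCI-H524 cells, read out through a cell viability assay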
Description: SANGER: Inhibition of human NCI-H524 cell growth in a cell viability assay.

U-698-M = assay: cells; format: functional, cell-based; conditions: Homo sapiens
Description: SANGER: Inhibition of human U-698-M cell growth in a cell viability assay.

P31-FUJ = assay: cells; format: functional, cell-based; conditions: Homo sapiens;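 also: growth inhibition of P31-FUJ cells, read out with a viability assay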
Description: SANGER: Inhibition of human P31-FUJ cell growth in a cell viability assay.

NCI-H1734 = assay: cells; format: functional, cell-based; conditions: Homo sapiens;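 also: growth inhibition of human NCI-H1734 cells, read out with a cell viability assay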
Description: SANGER: Inhibition of human NCI-H1734 cell growth in a cell viability assay.

NCI-H322M = assay: cells; format: functional, cell-based; conditions: Homo sapiens;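 also: cell viability assay measuring inhibition of growth of human NCI-H322M cells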
Description: SANGER: Inhibition of human NCI-H322M cell growth in a cell viability assay.

CCF-STTG1 = assay: cells; format: functional, cell-based; conditions: Homo sapiens;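 also: growth inhibition of human CCF-STTG1 cells, determined with a cell viability read-out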
Description: SANGER: Inhibition of human CCF-STTG1 cell growth in a cell viability assay.

SNG-M = assay: cells; format: functional, cell-based; conditions: Homo sapiens
Description: SANGER: Inhibition of human SNG-M cell growth in a cell viability assay.

PLC-PRF-5 = assay: cells; format: functional, cell-based; conditions: Homo sapiens;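 also: growth inhibition of human PLC-PRF-5 cells, read out with a viability assay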
Description: SANGER: Inhibition of human PLC-PRF-5 cell growth in a cell viability assay.

SR = assay: cells; format: functional, cell-based; conditions: Homo sapiens
Description: SANGER: Inhibition of human SR cell growth in a cell viability assay.

HSC-4 = assay: cells; format: functional, cell-based, Homo sapiens; conditions: hsc-4;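 also: growth inhibition of human HSC-4 cells, read out with a cell viability assay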
Description: SANGER: Inhibition of human HSC-4 cell growth in a cell viability assay.

SK-CO-1 = assay: cells; format: functional, cell-based; conditions: Homo sapiens;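 also: growth inhibition of SK-CO-1 cells, determined by a viability readout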
Description: SANGER: Inhibition of human SK-CO-1 cell growth in a cell viability assay.

OPM-2 = assay: cells; format: functional, cell-based; conditions: Homo sapiens;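 also: growth of OPM-2 cells measured with a viability assay, IC50 for suppression of proliferation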
Description: SANGER: Inhibition of human OPM-2 cell growth in a cell viability assay.

Caov-3 cell line = assay: cells; format: functional, cell-based; conditions: Homo sapiens;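 also: cell growth inhibition read out by a viability assay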
Description: SANGER: Inhibition of human Caov-3 cell growth in a cell viability assay.

MDA-MB-468 = assay: cells; format: functional, cell-based; conditions: Homo sapiens
Description: SANGER: Inhibition of human MDA-MB-468 cell growth in a cell viability assay.

TT = assay: cells; format: functional, cell-based; conditions: Homo sapiens
Description: SANGER: Inhibition of human TT cell growth in a cell viability assay.

NCCIT = assay: SANGER: Inhibition of human NCCIT cell growth in a cell viability assay.; format: functional, cell-based
SNU-475 = assay: cells; format: functional, cell-based; conditions: Homo sapiens
Description: SANGER: Inhibition of human SNU-475 cell growth in a cell viability assay.

MFE-296 = assay: SANGER: Inhibition of human MFE-296 cell growth in a cell viability assay.; format: functional, cell-based
NALM-6 = assay: cells; format: functional, cell-based; conditions: Homo sapiens;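 also: growth inhibition of NALM-6 cells, read out with a cell viability assay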
Description: SANGER: Inhibition of human NALM-6 cell growth in a cell viability assay.

NCI-H1618 = assay: cells; format: functional, cell-based; conditions: Homo sapiens;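 also: growth inhibition of human NCI-H1618 cells, measured by a cell viability assay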
Description: SANGER: Inhibition of human NCI-H1618 cell growth in a cell viability assay.

CESS = assay: SANGER: Inhibition of human CESS cell growth in a cell viability assay.; format: functional, cell-based
TUR = assay: cells; format: functional, cell-based; conditions: Homo sapiens;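 also: growth inhibition of human TUR cells, read out with a cell viability assay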
Description: SANGER: Inhibition of human TUR cell growth in a cell viability assay.

With `CCOc1nc(NC(=O)Cc2cc(OC)ccc2OC)cc(N)c1C#N` the IC50 (SNU-423; Homo sapiens, SNU-423) was > 10 µM, the IC50 (CHP-134) was > 10 µM and the IC50 (H9) was > 10 µM. For the same compound, the IC50 (NCI-H630; Homo sapiens, NCI-H630) was > 10 µM, the IC50 (BALL-1) was > 10 µM and the IC50 (HCT-15; Homo sapiens, HCT-15) was > 10 µM. For the same compound, the IC50 (D-566MG) was > 10 µM, the IC50 (HuO9; Homo sapiens, HuO9) was > 10 µM and the IC50 (SW900) was > 10 µM. For the same compound, the IC50 (MOLT-13) was > 10 µM, the IC50 (NCI-H1048) was > 10 µM and the IC50 (LU-135) was > 10 µM.
For `CC(=O)O[C@@H]1[C@@H](OC(C)=O)[C@@H](O)[C@H](Oc2c(-c3ccc(O)cc3)oc3cc(O)cc(O)c3c2=O)O[C@H]1C`, the IC50 (CHP-134) was > 10 µM, the IC50 (H9) was > 10 µM and the IC50 (NCI-H630; Homo sapiens, NCI-H630) was > 10 µM. The IC50 (BALL-1) was > 10 µM, the IC50 (HCT-15; Homo sapiens, HCT-15) was > 10 µM and the IC50 (D-566MG) was > 10 µM. For the same compound, the IC50 (HuO9; Homo sapiens, HuO9) was > 10 µM, the IC50 (SW900) was > 10 µM and the IC50 (MOLT-13) was > 10 µM. The IC50 (NCI-H1048) was > 10 µM and the IC50 (LU-135) was > 10 µM.
In the case of `COc1cc(F)c(F)c(Nc2ccc(I)cc2F)c1NS(=O)(=O)C1(CC(O)CO)CC1` (stereo not given), the IC50 (SNU-423; Homo sapiens, SNU-423) is reported as 4.93 µM, the IC50 (CHP-134) is reported as > 5 µM and the IC50 (H9) is reported as 0.0201 µM. For the same compound, the IC50 (NCI-H630; Homo sapiens, NCI-H630) was > 5 µM, the IC50 (BALL-1) was > 5 µM and the IC50 (D-566MG) was 4.27 µM. For the same compound, the IC50 (HuO9; Homo sapiens, HuO9) was > 5 µM, the IC50 (SW900) was > 5 µM and the IC50 (MOLT-13) was > 5 µM. The IC50 (NCI-H1048) was > 5 µM and the IC50 (LU-135) was > 5 µM.
`O=C1N=C(NCc2cccs2)S/C1=C\c1ccc2ncccc2c1` was tested, and the IC50 (SNU-423; Homo sapiens, SNU-423) was > 5 µM, the IC50 (CHP-134) was > 5 µM and the IC50 (H9) was > 5 µM. The IC50 (NCI-H630; Homo sapiens, NCI-H630) was > 5 µM, the IC50 (BALL-1) was > 5 µM and the IC50 (D-566MG) was > 5 µM. For the same compound, the IC50 (HuO9; Homo sapiens, HuO9) was > 5 µM, the IC50 (SW900) was > 5 µM and the IC50 (MOLT-13) was > 5 µM. For the same compound, the IC50 (NCI-H1048) was > 5 µM and the IC50 (LU-135) was > 5 µM.
For `Cc1cc([C@@H](C)Nc2ccccc2C(=O)O)c2nc(N3CCOCC3)cc(=O)n2c1` [AZD-6482], the IC50 (SNU-423; snu-423) was 1.57 µM and > 5.12 µM, the IC50 (DV-90) was > 5.12 µM and the IC50 (NCI-H2227) was > 5.12 µM. For the same compound, the IC50 (MRK-nu-1) was > 5.12 µM, the IC50 (EW-7) was 0.864 µM and 3.11 µM and the IC50 (HCC1143) was > 5.12 µM. The IC50 (NCI-H838) was > 5.12 µM, the IC50 (COR-L279) was > 5.12 µM and the IC50 (NCI-H719) was > 5.12 µM. For the same compound, the IC50 (BC1 cell line) was > 5.12 µM, the IC50 (COLO 205) was > 5.12 µM and the IC50 (MES-SA) was > 5.12 µM and 1.11 µM. For the same compound, the IC50 (NCI-H630; nci-h630) was > 5.12 µM, the IC50 (Daudi) was 1.07 µM and the IC50 (IPC-298) was > 5.12 µM. For the same compound, the IC50 (Calu-1) was > 5.12 µM, the IC50 (MC-CAR) was > 5.12 µM and the IC50 (HCT-15; hct-15) was > 5.12 µM. The IC50 (TALL-1) was > 5.12 µM, the IC50 (LC-1F) was > 5.12 µM and the IC50 (SNU-C1) was > 5.12 µM. For the same compound, the IC50 (BL-70) was 4.86 µM, the IC50 (C-4-II) was > 5.12 µM and the IC50 (L-540) was > 5.12 µM. For the same compound, the IC50 (D-566MG) was 3.07 µM, the IC50 (JIYOYE) was > 5.12 µM and the IC50 (NCI-H2196) was > 5.12 µM. The IC50 (CPC-N) was > 5.12 µM, the IC50 (ECC12) was > 5.12 µM and the IC50 (EFE-184) was > 5.12 µM. For the same compound, the IC50 (HuO9; huo9) was 1.61 µM and > 5.12 µM, the IC50 (NCI-H524) was > 5.12 µM and the IC50 (U-698-M) was > 5.12 µM. For the same compound, the IC50 (P31-FUJ) was > 5.12 µM, the IC50 (NCI-H1734) was > 5.12 µM and the IC50 (SW900) was > 5.12 µM. The IC50 (NCI-H322M) was > 5.12 µM, the IC50 (CCF-STTG1) was 1.43 µM and the IC50 (SNG-M) was > 5.12 µM. The IC50 (PLC-PRF-5) was > 5.12 µM, the IC50 (NCI-H1048) was 1.23 µM and the IC50 (SR) was > 5.12 µM. For the same compound, the IC50 (HSC-4) was > 5.12 µM, the IC50 (SK-CO-1) was > 5.12 µM and the IC50 (OPM-2) was > 5.12 µM. For the same compound, the IC50 (Caov-3 cell line) was > 5.12 µM, the IC50 (MDA-MB-468) was 1.54 µM and the IC50 (TT) was > 5.12 µM. For the same compound, the IC50 (NCCIT) was > 5.12 µM, the IC50 (SNU-475) was > 5.12 µM and the IC50 (MFE-296) was 1.57 µM. For the same compound, the IC50 (NALM-6) was 0.705 µM, the IC50 (NCI-H1618) was > 5.12 µM and the IC50 (CESS) was 4.8 µM. For the same compound, the IC50 (TUR) was > 5.12 µM.
